{"source": "patent US10668049B2", "about": "“Methods of treating cognitive decline with transforming growth factor beta inhibitors” (The Regents of the University of California, priority 2008, dated 2020)", "key": {"[1]": {"system": "neocortical slices", "test": "Field potential recordings of epileptiform activity in neocortical slices", "format": "cell-based, rat", "procedure": "Brain slices for the in vitro experiments were prepared by means of standard techniques (Ivens et al., 2007; Pavlovsky et al., 2003; Seiffert et al., 2004). Slices were transferred to a recording chamber where they were incubated in aCSF containing BSA (6.7 mg/ml), TGF-β1 (10 ng/ml) or artificial serum (aSerum, composition based on aCSF with the following changes, composition in mM: 0.8 MgSO4, 1.3 CaCl2, 5.7 KCl, 1 L-glutamine, 0.1 albumin). To block the activity of TGF-β1, slices were incubated in aCSF containing SB431542 (10 μM) before the addition of TGF-β1 (10 ng/ml). To block TGF-βRs, slices were incubated in aCSF containing SB431542 (10 μM) and TGF-βRII antibody (10 μg/ml) for 30 min followed by incubation in BSA in the presence of TGF-βR blockers. For detection of epileptiform activity, field potentials were recorded >4 h following incubation in cortical layer IV using extracellular glass microelectrodes (˜3 MΩ) in response to bipolar stimulation at the border of white and grey matter.\nTo assess the hypothesis that activation of the TGF-β signaling pathway is the mechanism underlying albumin-induced epileptogenesis, we activated this pathway directly by incubating neocortical slices with TGF-β1 (10 ng/mL) in artificial cerebrospinal fluid (aCSF) and performed electrophysiological recordings. These recordings were compared to those of slices treated with a solution containing serum levels of electrolytes and 0.1 mM albumin (aSERUM, previously shown to induce epileptogenesis; Ivens et al., 2007), albumin in aCSF, or aCSF (control). […] When albumin was added to the control aCSF solution, epileptiform activity was recorded in response to stimulation of the white matter (n=8 out of 12 slices, 6 animals). Importantly. TGF-β1 treatment was sufficient to recapitulate epileptiform activity similar to that seen following treatment with aSERUM and albumin in aCSF (n=5 out of 5 slices, 4 animals; n=7 out of 9 slices, 3 animals; and n=8 out of 12 slices, 6 animals, respectively). In all three cases, the evoked epileptiform activity, was all-or-none in nature, paroxysmal and prolonged, similar to that seen following BBB opening with bile salts (Ivens et al., 2007; Seiffert et al., 2004) and typical to that observed in acute models of epilepsy (Gutnick et al., 1982).\nTo further confirm that the TGF-β1 induced epileptiform activity was dependent on the TGF-βR mediated pathway, we performed additional trials of the above experiments in the presence of two TGF-βR blockers (SB431542, the TGF-βRI kinase activity inhibitor and TGF-βRII antibody)."}, "[2]": {"molecular_target": "T1, astrocyte specific glutamate transporter, SLC1A2 (Rattus norvegicus, UniProt P31596)", "T1 construct": "In vitro intracellular recordings were obtained from pyramidal neurons (layer 2-3) 23-28 h following the in vivo treatment; from tissue; host or cells: acute rat neocortical slices (astrocytic transporter; recordings from layer 2-3 pyramidal neurons)", "T1 sequence (P31596 whole entry)": "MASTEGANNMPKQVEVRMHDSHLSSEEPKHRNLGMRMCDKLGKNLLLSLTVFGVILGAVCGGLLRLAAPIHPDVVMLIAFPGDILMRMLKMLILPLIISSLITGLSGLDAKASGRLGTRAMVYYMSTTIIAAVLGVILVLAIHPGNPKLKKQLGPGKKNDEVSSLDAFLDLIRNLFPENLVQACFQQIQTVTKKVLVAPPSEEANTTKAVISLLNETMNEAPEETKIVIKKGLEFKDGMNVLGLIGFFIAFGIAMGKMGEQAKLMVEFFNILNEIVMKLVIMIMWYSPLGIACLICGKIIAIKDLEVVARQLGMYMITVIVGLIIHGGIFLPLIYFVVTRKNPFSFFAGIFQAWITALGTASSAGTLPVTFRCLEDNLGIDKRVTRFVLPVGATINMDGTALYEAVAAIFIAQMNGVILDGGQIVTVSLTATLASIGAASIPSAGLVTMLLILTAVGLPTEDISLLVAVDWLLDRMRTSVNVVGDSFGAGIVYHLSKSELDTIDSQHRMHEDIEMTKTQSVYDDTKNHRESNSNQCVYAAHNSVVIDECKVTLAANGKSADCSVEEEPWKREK", "test": "Whole cell patch recording of NMDA-mediated EPSCs in cortical pyramidal neurons", "format": "cell-based", "details": "DHK 100 μM", "procedure": "In vitro intracellular recordings were obtained from pyramidal neurons (layer 2-3) 23-28 h following the in vivo treatment with albumin or from control rats. Currents were recorded using the whole cell patch configuration, as described previously (Pavlovsky et al., 2003). In brief, glass pipettes were pulled from capillaries using a vertical puller (Narashige, Greenvale, N.Y.) and filled with a solution comprising (in mM): 150 CsCl, 1 MgCl2, 10 HEPES, 4 Na2ATP, 0.1 CaCl2, and 1.1 mM EGTA, pH adjusted to 7.2 with a final osmolarity of 290-310 mOsm. Cells were visualized using infrared differential interference phase contrast video-microscopy. Recordings were performed using AxoPatch 700B (Axon Instruments, Foster City, Calif.), digitized at 10 kHz and recorded using pClamp 9.2 (Axon Instruments, Foster City, Calif.). Patch pipette's resistance was 4-5 MΩ. Series resistance was not electronically compensated; however, cells in which series resistance varied by more than 25% were excluded from the analysis. Stimulation protocols were started at least 5 min following impalement to allow intracellular dialysis with the pipette solution. Excitatory post-synaptic currents (EPSCs) were evoked—using a bipolar stimulating electrode positioned <200 μm from the recorded cell—at 75% of the intensity producing maximal EPSCs. N-methyl-D-aspartic acid (NMDA) currents were recorded in the presence of blockers of α-amino-3-hydroxy-5-methyl-4-isoxazole-propionic acid (AMPA)/kainate (i.e., 30 μM CNQX) and of gamma-aminobutyric acid A (GABAA) receptors (i.e., 10 μM bicuculine methiodide). Cells were voltage clamped to +40 mV to alleviate NMDA receptor blockade and inactivate fast Na^+ currents. In some experiments, dihydrokainic acid (DHK, Tocris, Bristol, UK), 100 μM, was added to the extracellular solution to selectively block the astrocyte specific glutamate transporter, SLC1A2 (see Arriza et al., 1994).\nTo confirm that the transcriptional changes induced by albumin were associated with altered cellular functions, the clearance of extracellular glutamate and potassium in cortical slices 24 hours following albumin treatment in vivo was investigated. To measure synaptic glutamate levels during neuronal activation, the slowly inactivating (Lester et al., 1990) NMDA currents in cortical neurons were recorded by using the whole-cell patch configuration (in the presence of non-NMDA glutamate and GABA receptor blockers, see Methods). Cells were clamped at +40 mV to prevent a potential confounding effect of post-synaptic depolarization due to the accumulation of synaptic [K^+]o. […] Synaptic glutamate elicited by 50 extracellular stimulations at 2, 5, 10, 20, 50 and 100 Hz before and after adding the astrocytic SLC1A2 specific inhibitor, DHK was measured. In neurons from control animals, DHK had no effect on single EPSCs or EPSCs elicited at low stimulation frequencies (<20 Hz). […] The same experiments were then repeated 24 h following cortical application of albumin (i.e. during epileptogenesis). In contrast to the control experiments, DHK had no effect on EPSC amplitude in treated slices (FIG. 13b-c, right), supporting reduced expression of the astrocytic transporter SLC1A2."}, "[3]": {"system": "albumin-induced epileptogenesis", "test": "EEG recording from awake rats during albumin-induced epileptogenesis", "format": "in vivo, rat"}}}
{"molecule": "TGF-β1: TGF-β1 (10 ng/ml, Peprotech), used to activate the TGF-β pathway", "values": [{"measurement": "integral of the field potential", "setting": "[1]; inducer alone, without TGF-βR blockers", "result": "84.1±20.1", "unit": "mV*ms"}, {"measurement": "evoked epileptiform activity in response to stimulation of the white matter, slices showing it", "setting": "[1]; slices incubated with the inducer", "result": "5 out of 5"}]}
{"molecule": "CC(C)[C@H]1CN[C@H](C(=O)O)[C@H]1CC(=O)O", "note": "[DHK, dihydrokainic acid, reference compound]", "values": [{"measurement": "effect on NMDA currents at stimulation frequencies >20 Hz", "setting": "[2]; neurons from control animals", "result": "increased NMDA currents"}, {"measurement": "effect on single EPSCs or EPSCs elicited at low stimulation frequencies (<20 Hz)", "setting": "[2]; neurons from control animals", "result": "no effect"}, {"measurement": "effect on EPSC amplitude", "setting": "[2]; slices 24 h following cortical application of albumin", "result": "no effect"}]}
{"molecule": "CCCCc1nc(Cl)c(CO)n1Cc1ccc(-c2ccccc2-c2nnn[nH]2)cc1.[K]", "note": "[Losartan, 2-butyl-4-chloro-1-[p-(o-1H-tetrazol-5-ylphenyl)benzyl]imidazole-5-methanol, monopotassium salt, reference compound]", "values": [{"measurement": "number of seizure like events (SLEs)", "setting": "[3]; losartan-treated rats (n=7) compared to BSA-treated ones (n=8)", "result": "significantly smaller"}, {"measurement": "albumin-induced EEG changes (signal harmony, complexity) during epileptogenesis", "setting": "[3]; single, focal application together with BSA, 10 μM", "result": "reversed the albumin-induced EEG changes"}]}
